Legend:
[1] = biological target: Platelet-derived growth factor receptor alpha (Homo sapiens) (UniProt P16234); conditions: Compound concentration 1000.0 nM
[2] = biological target: Ephrin type-B receptor 1 (Homo sapiens) (UniProt P54762); conditions: Compound concentration 1000.0 nM
[3] = biological target: MAP/microtubule affinity-regulating kinase 4 (Homo sapiens) (UniProt Q96L34); conditions: Compound concentration 1000.0 nM
[4] = biological target: Tyrosine-protein kinase ABL1 (Homo sapiens) (UniProt P00519); conditions: Compound concentration 1000.0 nM
[5] = biological target: SNF-related serine/threonine-protein kinase (Homo sapiens) (UniProt Q9NRH2); conditions: Compound concentration 1000.0 nM
[6] = test system: Tyrosine-protein kinase ABL1 (Homo sapiens), P00519 [H396P]; conditions: Compound concentration 1000.0 nM
[7] = biological target: Casein kinase II subunit alpha' (Homo sapiens) (UniProt P19784); conditions: Compound concentration 1000.0 nM
[8] = biological target: Sigma intracellular receptor 2 (Homo sapiens, UniProt Q5BJF2); conditions: Compound concentration 10.0 uM
[9] = biological target: Cyclin-dependent kinase 2 homolog (Plasmodium falciparum (isolate 3D7)) (UniProt P61075); conditions: Compound concentration 1000.0 nM
[10] = biological target: Phosphatidylinositol 4,5-bisphosphate 3-kinase catalytic subunit alpha isoform (Homo sapiens) (UniProt P42336); conditions: Compound concentration 1000.0 nM
[11] = test system: Proto-oncogene tyrosine-protein kinase receptor Ret (Homo sapiens), P07949 [V804L]; conditions: Compound concentration 1000.0 nM
[12] = biological target: Serine/threonine-protein kinase Nek7 (Homo sapiens) (UniProt Q8TDX7); conditions: Compound concentration 1000.0 nM
[13] = biological target: Discoidin domain-containing receptor 2 (Homo sapiens) (UniProt Q16832); conditions: Compound concentration 1000.0 nM
[14] = biological target: Cyclin-dependent kinase 17 (Homo sapiens) (UniProt Q00537); conditions: Compound concentration 1000.0 nM
[15] = biological target: Phosphatidylinositol 3-kinase C2 domain-containing subunit gamma (Homo sapiens) (UniProt O75747); conditions: Compound concentration 1000.0 nM
[16] = biological target: Mitogen-activated protein kinase kinase kinase kinase 5 (Homo sapiens) (UniProt Q9Y4K4); conditions: Compound concentration 1000.0 nM
[17] = biological target: Dual specificity mitogen-activated protein kinase kinase 7 (Homo sapiens) (UniProt O14733); conditions: Compound concentration 1000.0 nM
[18] = biological target: Serine/threonine-protein kinase D1 (Homo sapiens) (UniProt Q15139); conditions: Compound concentration 1000.0 nM
[19] = biological target: Serine/threonine-protein kinase ULK2 (Homo sapiens) (UniProt Q8IYT8); conditions: Compound concentration 1000.0 nM
[20] = biological target: T1, 5-hydroxytryptamine receptor 2C (Homo sapiens) (UniProt P28335); conditions: Compound concentration 10.0 uM
T1 sequence (whole entry): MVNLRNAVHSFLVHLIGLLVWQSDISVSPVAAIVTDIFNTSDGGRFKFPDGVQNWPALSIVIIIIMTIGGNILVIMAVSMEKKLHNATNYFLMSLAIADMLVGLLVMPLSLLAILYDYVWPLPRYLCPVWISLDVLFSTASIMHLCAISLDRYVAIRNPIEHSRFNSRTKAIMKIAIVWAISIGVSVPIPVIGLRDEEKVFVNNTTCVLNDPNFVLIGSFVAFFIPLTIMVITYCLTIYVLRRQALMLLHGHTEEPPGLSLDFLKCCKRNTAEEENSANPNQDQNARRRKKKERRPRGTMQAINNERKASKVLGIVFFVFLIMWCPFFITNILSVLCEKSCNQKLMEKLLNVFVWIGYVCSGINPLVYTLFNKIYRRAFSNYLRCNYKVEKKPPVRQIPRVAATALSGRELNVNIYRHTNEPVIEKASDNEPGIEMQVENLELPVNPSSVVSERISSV

[21] = biological target: Activin receptor type-1-like (Homo sapiens) (UniProt P37023); conditions: Compound concentration 1000.0 nM
[22] = biological target: Serine/threonine-protein kinase OSR1 (Homo sapiens) (UniProt O95747); conditions: Compound concentration 1000.0 nM
[23] = test system: Tyrosine-protein kinase ABL1 (Homo sapiens), P00519 [F317I]; conditions: Compound concentration 1000.0 nM
[24] = biological target: Calcium/calmodulin-dependent protein kinase type IV (Homo sapiens) (UniProt Q16566); conditions: Compound concentration 1000.0 nM
[25] = biological target: Phosphatidylinositol 5-phosphate 4-kinase type-2 gamma (Homo sapiens) (UniProt Q8TBX8); conditions: Compound concentration 1000.0 nM
[26] = biological target: Phosphatidylinositol 4-phosphate 3-kinase C2 domain-containing subunit beta (Homo sapiens) (UniProt O00750); conditions: Compound concentration 1000.0 nM
[27] = biological target: Cyclin-dependent kinase 5 (Homo sapiens) (UniProt Q00535); conditions: Compound concentration 1000.0 nM
[28] = biological target: Phosphorylase b kinase gamma catalytic chain, skeletal muscle/heart isoform (Homo sapiens) (UniProt Q16816); conditions: Compound concentration 1000.0 nM
[29] = biological target: LIM domain kinase 1 (Homo sapiens) (UniProt P53667); conditions: Compound concentration 1000.0 nM
[30] = biological target: Receptor tyrosine-protein kinase erbB-4 (Homo sapiens) (UniProt Q15303); conditions: Compound concentration 1000.0 nM
[31] = biological target: Non-receptor tyrosine-protein kinase TYK2 (Homo sapiens) (UniProt P29597); conditions: Compound concentration 1000.0 nM
[32] = biological target: Interstitial collagenase (Homo sapiens) (UniProt P03956); test: Inhibition of Peptidase, Matrix Metalloproteinase-1 (MMP-1) at 10 µM in the Eurofins-Panlabs enzyme assay (Eurofins_assay_114110); conditions: Compound concentration 10.0 uM
[33] = biological target: Mu-type opioid receptor (Homo sapiens) (UniProt P35372); conditions: Compound concentration 10.0 uM
[34] = biological target: Carbonic anhydrase 2 (Homo sapiens) (UniProt P00918); test: Inhibition of Carbonic Anhydrase II at compound concentration of 10.0 uM in the Eurofins-Panlabs enzyme assay (Eurofins_assay_112020); set-up: substrate with concentration; conditions: Compound concentration 10.0 uM
CYP2C19 = CYP2C19 (Homo sapiens, UniProt P33261); test: CYP450, 2C19 Eurofins-Panlabs enzyme assay; conditions: compound concentration 10 uM
[35] = biological target: T1, 5-hydroxytryptamine receptor 2C (Homo sapiens); conditions: Compound concentration 10.0 uM; remark: listed apart in the source

Sequence of Phosphatidylinositol 3-kinase C2 domain-containing subunit gamma (Homo sapiens) (O75747 whole entry, the tested form may be a part): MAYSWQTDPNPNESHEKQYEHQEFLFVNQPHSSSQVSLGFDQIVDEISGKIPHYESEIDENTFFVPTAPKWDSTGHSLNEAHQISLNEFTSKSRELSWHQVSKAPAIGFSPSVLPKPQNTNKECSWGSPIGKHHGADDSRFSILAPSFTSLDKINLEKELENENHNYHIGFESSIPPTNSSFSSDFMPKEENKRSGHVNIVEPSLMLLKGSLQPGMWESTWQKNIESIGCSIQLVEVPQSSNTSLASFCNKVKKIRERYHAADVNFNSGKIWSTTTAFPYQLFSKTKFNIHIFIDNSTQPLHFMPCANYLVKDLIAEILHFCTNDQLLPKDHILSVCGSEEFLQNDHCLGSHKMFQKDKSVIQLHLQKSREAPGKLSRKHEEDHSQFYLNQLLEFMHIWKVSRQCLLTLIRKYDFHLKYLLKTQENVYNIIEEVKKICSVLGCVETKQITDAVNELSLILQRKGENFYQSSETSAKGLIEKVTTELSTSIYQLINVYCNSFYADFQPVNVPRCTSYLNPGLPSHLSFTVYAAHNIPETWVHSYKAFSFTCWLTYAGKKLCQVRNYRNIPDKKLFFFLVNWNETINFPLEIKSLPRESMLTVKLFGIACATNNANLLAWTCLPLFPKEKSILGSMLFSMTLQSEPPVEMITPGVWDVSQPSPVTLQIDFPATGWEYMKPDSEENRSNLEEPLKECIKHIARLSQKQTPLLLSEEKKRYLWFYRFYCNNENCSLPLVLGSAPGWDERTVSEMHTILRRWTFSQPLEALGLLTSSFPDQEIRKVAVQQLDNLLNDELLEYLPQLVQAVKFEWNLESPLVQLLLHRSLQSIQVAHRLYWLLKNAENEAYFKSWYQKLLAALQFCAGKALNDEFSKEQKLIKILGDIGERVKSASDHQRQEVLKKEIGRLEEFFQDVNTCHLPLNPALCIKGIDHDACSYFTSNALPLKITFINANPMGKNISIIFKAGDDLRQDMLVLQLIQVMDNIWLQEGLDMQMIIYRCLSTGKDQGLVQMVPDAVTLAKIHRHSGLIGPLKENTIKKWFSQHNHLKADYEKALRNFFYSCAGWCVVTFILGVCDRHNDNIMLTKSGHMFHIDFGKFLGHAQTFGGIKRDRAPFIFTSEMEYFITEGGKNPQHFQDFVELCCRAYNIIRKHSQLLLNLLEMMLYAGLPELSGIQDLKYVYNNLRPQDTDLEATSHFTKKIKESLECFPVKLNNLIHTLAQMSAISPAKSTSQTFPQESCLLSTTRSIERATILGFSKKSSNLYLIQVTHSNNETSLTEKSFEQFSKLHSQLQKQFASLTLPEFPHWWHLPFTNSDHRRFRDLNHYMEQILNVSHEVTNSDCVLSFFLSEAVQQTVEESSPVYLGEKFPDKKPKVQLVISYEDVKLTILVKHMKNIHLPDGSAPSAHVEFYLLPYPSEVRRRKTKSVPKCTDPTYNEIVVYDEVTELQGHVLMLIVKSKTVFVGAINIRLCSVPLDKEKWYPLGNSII
Sequence of SNF-related serine/threonine-protein kinase (Homo sapiens) (Q9NRH2 whole entry): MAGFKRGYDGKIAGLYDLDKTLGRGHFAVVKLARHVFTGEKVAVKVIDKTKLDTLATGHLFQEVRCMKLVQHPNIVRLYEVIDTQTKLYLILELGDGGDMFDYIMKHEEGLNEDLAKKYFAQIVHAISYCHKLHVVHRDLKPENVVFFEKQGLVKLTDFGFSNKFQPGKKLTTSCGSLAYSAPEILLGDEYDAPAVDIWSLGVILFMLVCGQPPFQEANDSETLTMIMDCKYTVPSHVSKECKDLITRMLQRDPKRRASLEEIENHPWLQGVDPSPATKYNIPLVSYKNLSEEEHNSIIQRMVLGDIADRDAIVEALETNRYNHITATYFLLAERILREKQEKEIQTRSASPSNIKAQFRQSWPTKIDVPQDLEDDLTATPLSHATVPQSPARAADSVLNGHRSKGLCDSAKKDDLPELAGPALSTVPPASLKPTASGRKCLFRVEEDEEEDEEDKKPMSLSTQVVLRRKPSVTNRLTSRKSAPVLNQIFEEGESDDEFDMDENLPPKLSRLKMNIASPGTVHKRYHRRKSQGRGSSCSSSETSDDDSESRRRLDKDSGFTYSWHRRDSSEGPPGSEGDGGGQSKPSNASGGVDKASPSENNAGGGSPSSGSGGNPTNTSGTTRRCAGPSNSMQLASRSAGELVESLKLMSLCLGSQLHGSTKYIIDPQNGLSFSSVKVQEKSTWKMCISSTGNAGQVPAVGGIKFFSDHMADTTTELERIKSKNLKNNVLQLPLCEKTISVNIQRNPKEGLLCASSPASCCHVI
Sequence of Sigma intracellular receptor 2 (Q5BJF2 whole entry): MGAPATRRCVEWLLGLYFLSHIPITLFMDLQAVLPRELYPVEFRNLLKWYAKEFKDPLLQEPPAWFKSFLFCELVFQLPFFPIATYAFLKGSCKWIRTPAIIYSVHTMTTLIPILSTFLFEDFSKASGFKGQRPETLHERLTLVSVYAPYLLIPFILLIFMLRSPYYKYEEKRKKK
Sequence of Platelet-derived growth factor receptor alpha (Homo sapiens) (P16234 whole entry): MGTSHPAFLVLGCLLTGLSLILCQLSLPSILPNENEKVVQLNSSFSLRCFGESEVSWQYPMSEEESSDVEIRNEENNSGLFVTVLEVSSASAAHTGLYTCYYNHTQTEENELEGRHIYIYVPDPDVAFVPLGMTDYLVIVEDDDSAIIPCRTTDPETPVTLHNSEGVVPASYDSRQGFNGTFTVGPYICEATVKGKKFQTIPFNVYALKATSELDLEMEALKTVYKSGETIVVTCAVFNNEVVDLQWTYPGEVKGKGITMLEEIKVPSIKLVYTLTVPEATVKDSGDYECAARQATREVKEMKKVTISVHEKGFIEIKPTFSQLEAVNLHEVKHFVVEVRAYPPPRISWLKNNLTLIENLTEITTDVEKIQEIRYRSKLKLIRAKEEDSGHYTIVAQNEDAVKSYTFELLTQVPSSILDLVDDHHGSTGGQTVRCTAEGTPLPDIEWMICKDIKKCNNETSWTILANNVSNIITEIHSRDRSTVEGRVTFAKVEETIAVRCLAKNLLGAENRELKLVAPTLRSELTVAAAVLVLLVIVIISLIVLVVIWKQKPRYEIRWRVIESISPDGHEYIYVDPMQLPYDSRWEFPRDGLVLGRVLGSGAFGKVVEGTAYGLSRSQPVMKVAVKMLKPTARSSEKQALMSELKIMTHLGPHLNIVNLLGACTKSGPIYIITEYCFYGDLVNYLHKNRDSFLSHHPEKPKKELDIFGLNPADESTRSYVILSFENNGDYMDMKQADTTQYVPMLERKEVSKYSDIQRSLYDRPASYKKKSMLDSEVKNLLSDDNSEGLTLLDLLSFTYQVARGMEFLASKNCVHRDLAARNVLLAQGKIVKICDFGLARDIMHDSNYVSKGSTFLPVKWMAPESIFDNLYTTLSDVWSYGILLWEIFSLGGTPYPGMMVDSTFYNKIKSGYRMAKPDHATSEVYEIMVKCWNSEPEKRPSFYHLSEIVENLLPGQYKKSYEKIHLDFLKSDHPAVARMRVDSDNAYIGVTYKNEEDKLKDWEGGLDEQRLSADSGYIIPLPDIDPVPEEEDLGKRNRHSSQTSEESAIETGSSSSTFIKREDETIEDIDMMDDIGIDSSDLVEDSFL
Sequence of Discoidin domain-containing receptor 2 (Homo sapiens) (Q16832 whole entry, the tested form may be a part): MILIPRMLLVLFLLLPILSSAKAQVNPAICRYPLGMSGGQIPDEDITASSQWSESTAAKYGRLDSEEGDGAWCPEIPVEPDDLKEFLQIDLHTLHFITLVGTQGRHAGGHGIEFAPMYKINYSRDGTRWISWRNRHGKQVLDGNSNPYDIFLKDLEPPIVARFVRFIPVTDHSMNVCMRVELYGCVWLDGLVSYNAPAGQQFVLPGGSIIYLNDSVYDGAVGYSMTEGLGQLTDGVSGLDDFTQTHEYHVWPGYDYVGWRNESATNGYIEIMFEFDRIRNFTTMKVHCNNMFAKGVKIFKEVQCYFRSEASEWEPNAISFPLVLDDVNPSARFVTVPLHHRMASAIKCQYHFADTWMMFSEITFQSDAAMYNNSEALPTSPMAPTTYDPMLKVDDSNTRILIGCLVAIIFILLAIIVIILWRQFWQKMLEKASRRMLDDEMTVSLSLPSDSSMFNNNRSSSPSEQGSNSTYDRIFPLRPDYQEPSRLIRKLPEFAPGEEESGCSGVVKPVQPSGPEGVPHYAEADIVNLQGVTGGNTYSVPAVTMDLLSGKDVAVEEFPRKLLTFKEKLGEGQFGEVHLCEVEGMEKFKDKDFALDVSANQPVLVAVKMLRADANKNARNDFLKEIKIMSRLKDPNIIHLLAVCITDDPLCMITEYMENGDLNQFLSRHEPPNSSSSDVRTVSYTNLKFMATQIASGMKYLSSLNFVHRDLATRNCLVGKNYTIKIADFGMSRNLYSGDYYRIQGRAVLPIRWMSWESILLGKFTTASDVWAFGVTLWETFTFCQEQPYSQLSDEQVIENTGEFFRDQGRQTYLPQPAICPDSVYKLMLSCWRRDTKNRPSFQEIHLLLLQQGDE
Sequence of Cyclin-dependent kinase 5 (Homo sapiens) (Q00535 whole entry, looked up, canonical isoform): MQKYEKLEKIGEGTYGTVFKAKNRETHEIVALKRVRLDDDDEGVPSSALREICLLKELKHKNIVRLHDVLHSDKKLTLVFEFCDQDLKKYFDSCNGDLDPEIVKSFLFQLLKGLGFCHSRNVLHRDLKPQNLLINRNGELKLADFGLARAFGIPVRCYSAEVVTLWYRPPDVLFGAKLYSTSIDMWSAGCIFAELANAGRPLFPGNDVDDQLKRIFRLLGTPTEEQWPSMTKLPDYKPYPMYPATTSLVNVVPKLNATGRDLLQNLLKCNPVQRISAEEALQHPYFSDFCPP
Sequence of Phosphorylase b kinase gamma catalytic chain, skeletal muscle/heart isoform (Homo sapiens) (Q16816 whole entry, looked up, the tested form may be a part, canonical isoform): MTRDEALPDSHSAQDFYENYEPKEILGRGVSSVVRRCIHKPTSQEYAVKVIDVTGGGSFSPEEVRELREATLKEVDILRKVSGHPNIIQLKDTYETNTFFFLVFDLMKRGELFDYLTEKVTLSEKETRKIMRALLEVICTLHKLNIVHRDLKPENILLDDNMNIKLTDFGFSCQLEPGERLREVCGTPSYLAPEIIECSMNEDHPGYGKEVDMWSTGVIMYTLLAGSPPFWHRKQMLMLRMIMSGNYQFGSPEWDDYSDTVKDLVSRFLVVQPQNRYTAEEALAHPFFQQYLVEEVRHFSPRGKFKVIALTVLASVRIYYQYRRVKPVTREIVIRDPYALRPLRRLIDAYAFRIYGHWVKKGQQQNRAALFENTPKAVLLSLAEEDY

Compound O=C(NCc1ncc(C(F)(F)F)cc1Cl)c1ccc2c(c1)C1(CCS(=O)(=O)CC1)[C@@H](C1CC1)N2S(=O)(=O)c1ccc(F)cc1 [BAY-786] has a residual activity [1] of 87%, a residual activity [2] of 100% and a residual activity [3] of 100%. For the same compound, the residual activity [4] was 86%, the residual activity [5] was 96% and the residual activity [6] was 100%. The residual activity [7] was 72%, the inhibition [8] was 52.7% and the residual activity [9] was 97%. The residual activity [10] was 100%, the residual activity [11] was 100% and the residual activity [12] was 65%. The residual activity [13] was 67%, the residual activity [14] was 99% and the residual activity [15] was 75%. For the same compound, the residual activity [16] was 100%, the residual activity [17] was 79% and the residual activity [18] was 76%. The residual activity [19] was 54%, the inhibition [20] was 16.9% and the residual activity [21] was 72%. It also gave a residual activity [22] of 71%, a residual activity [23] of 80% and a residual activity [24] of 71%. It also gave a residual activity [25] of 100%, a residual activity [26] of 90% and a residual activity [27] of 89%. The residual activity [28] was 100%, the residual activity [29] was 91% and the residual activity [30] was 72%. The residual activity [31] was 73%.
O=C(NCc1ncc(C(F)(F)F)cc1Cl)c1ccc2c(c1)C1(CCS(=O)(=O)CC1)[C@H](C1CC1)N2S(=O)(=O)c1ccc(F)cc1 [BAY-784] gave an inhibition [32] of -4%, a residual activity [1] of 90% and a residual activity [2] of 100%. It also gave a residual activity [3] of 100%, a residual activity [4] of 71% and a residual activity [5] of 77%. The residual activity [6] was 100%, the residual activity [7] was 100% and the inhibition [8] was 74.9%. The residual activity [9] was 94%, the residual activity [10] was 100% and the residual activity [11] was 92%. It also gave an inhibition [33] of 16%, a residual activity [12] of 100% and a residual activity [13] of 78%. The residual activity [14] was 100%, the inhibition [34] was -5% and the residual activity [15] was 75%. The inhibition at 10 µM (CYP2C19) was 36% (not active), the residual activity [16] was 82% and the residual activity [17] was 72%. It also gave a residual activity [18] of 93%, a residual activity [19] of 58% and an inhibition [20] of 9.65%. For the same compound, the residual activity [21] was 98%, the residual activity [22] was 87% and the residual activity [23] was 83%. The inhibition [35] was 9%, the residual activity [24] was 86% and the residual activity [25] was 100%. For the same compound, the residual activity [26] was 100%, the residual activity [27] was 0% and the residual activity [28] was 100%. The residual activity [29] was 100%, the residual activity [30] was 70% and the residual activity [31] was 79%.
